# Peptide text beside a SMILES is read from it. * marks the point of attachment. Fmoc = O=C(OCC1c2ccccc2-c2ccccc21)*; Ahx = NCCCCCC(=O)O
# Biological target: cathepsin L (Homo sapiens, UniProt P07711)
# Conditions: 50 µM peptide, citrate buffer 0.1 M pH 5.5, 1 mM EDTA, 2 mM DTT, 37 °C, overnight reaction, product formation by HPLC
# Experimental: Activity assay of peptides with cathepsin L.
# The reaction mixture was analysed by HPLC to
# detect the formation of products from the overnight reaction.
# Degradation of non-fluorescent peptides by cathepsin L
# A solution of cathepsin L (20 µg/mL, 24 units/L) in citrate buffer 0.1 M pH 5.5, 1 mM EDTA, 2 mM
# DTT was preactivated at 25 °C for 15 minutes. A stock solution of peptide 4, 5, 6 or 7 (125 µL, 25 nmol,
# 0.20 mM in DMSO) was diluted in 365 µL of the assay buffer to a final concentration of 50 µM and pre-
# incubated at 37 °C. 10 µL of pre-activated cathepsin L was then added to the peptide solution and
# incubated with mild shaking at 37 °C. Aliquots of 100 µL were withdrawn at 0 min, 1 hour and overnight.
# Samples were flash-frozen on liquid nitrogen and were heated at 100 °C for 120 seconds prior to the
# Sequence of cathepsin L (P07711 114-333, species assumed): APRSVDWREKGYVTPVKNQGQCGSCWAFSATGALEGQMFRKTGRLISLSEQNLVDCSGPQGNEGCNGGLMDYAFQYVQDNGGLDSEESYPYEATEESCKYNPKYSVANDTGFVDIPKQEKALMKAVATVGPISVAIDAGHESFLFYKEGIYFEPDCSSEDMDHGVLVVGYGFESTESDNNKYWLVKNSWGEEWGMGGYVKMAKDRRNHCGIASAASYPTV
structure (smiles),measurement,value
"CC(C)[C@H](NC(=O)[C@H](Cc1ccccc1)NC(=O)CCCCCNC(=O)CCCCCNC(=O)OCC1c2ccccc2-c2ccccc21)C(=O)N[C@@H](CCCNC(=N)N)C(=O)NCC(=O)N[C@@H](C)C(=O)NCC(=O)N[C@@H](CCC(=O)O)C(N)=O [Peptide 3, Fmoc-Ahx-Ahx-FVRGAGE] ({Fmoc-Ahx-Ahx}-FVRGAGE-NH2)",Activity assay of peptides with cathepsin L,active

# From paper PMC5316865, “Covalent assembly of nanoparticles as a peptidase-degradable platform for molecular MRI” (Nature Communications, 2017)
